These results are taken from patent US20260116921A1, “PEPTIDE INHIBITORS OF INTERLEUKIN-23 RECEPTOR AND THEIR USE TO TREAT INFLAMMATORY DISEASES” (priority 2018, published 2026).

SMILES strings stand for the structures. Numbered stars: 1 amine (or outer) side, 2 acyl side, 3 side chain; on linkers, the order of the positions; unused ones are H or OH. Bridge positions count the residues as written; N and C are the ends. Square brackets hold non-standard residues; d marks the D form. Peptide text beside a SMILES is read from it. Trp(7-Me) = Cc1cccc2c(C[C@H](N)C(=O)O)c[nH]c12; Abu(4-yl) = O=C([C@H](CC[*:3])N[*:1])[*:2]; 2Nal = N[C@@H](Cc1ccc2ccccc2c1)C(=O)O; AEF = NCCOc1ccc(C[C@H](N)C(=O)O)cc1; Pen = CC(C)(S)[C@H](N)C(=O)O; αMeK = C[C@](N)(CCCCN)C(=O)O; Aib = CC(C)(N)C(=O)O; βAla = NCCC(=O)O

For one data set, the target named is T1, IL-23R (Homo sapiens, UniProt Q5VWK5).
T1 sequence (Q5VWK5 24-629): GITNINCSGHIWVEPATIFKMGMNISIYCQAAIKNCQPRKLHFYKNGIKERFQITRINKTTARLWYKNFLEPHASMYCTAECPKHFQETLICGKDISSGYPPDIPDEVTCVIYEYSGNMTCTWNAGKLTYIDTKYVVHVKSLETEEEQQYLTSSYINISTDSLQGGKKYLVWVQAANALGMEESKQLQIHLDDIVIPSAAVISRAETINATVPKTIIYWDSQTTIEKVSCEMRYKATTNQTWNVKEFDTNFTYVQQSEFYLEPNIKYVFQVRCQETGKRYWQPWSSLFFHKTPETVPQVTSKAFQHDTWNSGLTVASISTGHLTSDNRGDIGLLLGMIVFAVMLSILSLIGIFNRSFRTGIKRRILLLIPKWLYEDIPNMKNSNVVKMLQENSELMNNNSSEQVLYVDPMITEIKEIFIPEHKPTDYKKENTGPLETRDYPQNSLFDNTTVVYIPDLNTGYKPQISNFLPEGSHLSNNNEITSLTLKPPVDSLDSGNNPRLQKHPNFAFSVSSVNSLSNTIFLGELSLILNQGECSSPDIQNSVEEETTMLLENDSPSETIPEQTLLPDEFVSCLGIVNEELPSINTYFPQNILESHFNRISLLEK
The data set can be described thus: DB cells IL23R pSTAT3 cell assay (pStat3 HTRF). The class given is cell-based. Particulars: Table E3; DB cells, IL-23 0.5 nM, 30 minutes at 37° C.; read-out: pStat3 HTRF (IC50). The procedure, abridged:
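HTRF readout of lysate pSTAT3 (Tyr705) after two-plate processing. Peptide dilution series co-incubated with IL-23 (0.5 nM final) on 5×10E5 IL-23R-expressing DB cells per well, 30 min, 37 °C.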

A short description of data set [1]: in vitro. Particulars: human, pH 6.8; for half-life at 20 μM: 20% fecal homogenate (supernatant), anaerobic.
Data set [2] is described as follows: in vitro. Particulars: cynomolgus monkey, pH 6.8; for half-life at 20 μM: 20% fecal homogenate (supernatant), anaerobic.
Data set [3] in a line: in vitro. Particulars: both, SD, rat; for half-life at 20 μM: plasma (EDTA).
Experimental: Peptides of interest (20 μM) were incubated with pre-warmed rat plasma (SD rat, mixed gender pooled, EDTA, filtered through 0.22 μm, BioreclamationIVT) at 37° C. […] Quenched samples were stored at 4° C. until the end of the experiment and centrifuged at 4,000 rpm for 10 minutes. The supernatant were diluted 1:1 with deionized water and analyzed using LC-MS. Percentage remaining at each time point was calculated based on the peak area ratio (analyte over internal standard) relative to the initial level at time zero. Half-lives were calculated by fitting to a first-order exponential decay equation using GraphPad.

One may read the IC50 as the midpoint of a concentration-inhibition curve. What is called half-life is the time needed for the level to fall by half in the phase considered. Lower therefore signals rapid decline. As to `CC(=O)NCCCC[C@H](NC(=O)[C@](C)(CC(C)C)NC(=O)[C@H](Cc1ccc2ccccc2c1)NC(=O)[C@H](Cc1ccc(OCCN)cc1)NC(=O)[C@H]1NC(=O)[C@H](CCC(N)=O)NC(=O)[C@H](Cc2c[nH]c3c(C)cccc23)NC(=O)[C@H]([C@@H](C)O)NC(=O)[C@H](CC(N)=O)NC(=O)[C@@H](NC(C)=O)C(C)(C)SSC1(C)C)C(=O)N[C@H](C)C(=O)NCCC(N)=O` [compound 209], the IC50 on IL-23R was 1 to 10 nM. Also, the figures for the half-life at 20 μM in the data set “in vitro [1]”, in “in vitro [2]” and in “in vitro [3]” were more than 24 h, more than 24 h and 1 h, respectively.
Turning to `CC(=O)NCCCC[C@H](NC(=O)[C@](C)(CC(C)C)NC(=O)[C@H](Cc1ccc2ccccc2c1)NC(=O)[C@H](Cc1ccc(OCCN)cc1)NC(=O)[C@H]1NC(=O)[C@H](CCC(N)=O)NC(=O)[C@H](Cc2c[nH]c3c(C)cccc23)NC(=O)[C@H]([C@@H](C)O)NC(=O)[C@H](CC(N)=O)NC(=O)[C@@H](NC(C)=O)C(C)(C)SSC1(C)C)C(=O)N[C@H](CC(C)C)C(=O)NCCC(N)=O` [compound 210], on IL-23R, the IC50 was 10 to 100 nM. Further, the half-life at 20 μM in “in vitro [1]” is more than 24 h; in the data set “in vitro [2]”, more than 24 h; in “in vitro [3]” it was less than 0.3 h.
Turning to `CC(=O)NCCCC[C@H](NC(=O)[C@](C)(CC(C)C)NC(=O)[C@H](Cc1ccc2ccccc2c1)NC(=O)[C@H](Cc1ccc(OCCN)cc1)NC(=O)[C@H]1NC(=O)[C@H](CCC(N)=O)NC(=O)[C@H](Cc2c[nH]c3c(C)cccc23)NC(=O)[C@H]([C@@H](C)O)NC(=O)[C@H](CC(N)=O)NC(=O)[C@@H](NC(C)=O)C(C)(C)SSC1(C)C)C(=O)N[C@H](Cc1ccccc1)C(=O)NCCC(N)=O` [compound 213], the IC50 on IL-23R was in the range of 10 to 100 nM. The half-life at 20 μM in the data set “in vitro [1]” is more than 24 h; in “in vitro [2]” it was more than 24 h; in the data set “in vitro [3]” it was less than 0.3 h.
On to `CC(=O)NCCCC[C@H](NC(=O)[C@](C)(CC(C)C)NC(=O)[C@H](Cc1ccc2ccccc2c1)NC(=O)[C@H](Cc1ccc(OCCN)cc1)NC(=O)[C@H]1NC(=O)[C@H](CCC(N)=O)NC(=O)[C@H](Cc2c[nH]c3c(C)cccc23)NC(=O)[C@H]([C@@H](C)O)NC(=O)[C@H](CC(N)=O)NC(=O)[C@@H](NC(C)=O)C(C)(C)SSC1(C)C)C(=O)N[C@H](Cc1c[nH]cn1)C(=O)NCCC(N)=O` [compound 215], for which the IC50 at IL-23R fell in the range of 1 to 10 nM. Besides, the half-life in the data set “in vitro [1]” (tissue homogenate) is more than 24 h; in the data set “in vitro [2]” (tissue homogenate) it was more than 24 h; in “in vitro [3]” (plasma), 2 h.
Take `CC(=O)N[C@@H]1C(=O)N[C@@H](CC(N)=O)C(=O)N[C@@H]([C@@H](C)O)C(=O)N[C@@H](Cc2c[nH]c3c(C)cccc23)C(=O)N[C@@H](CCC(N)=O)C(=O)N[C@H](C(=O)N[C@@H](Cc2ccc(OCCN)cc2)C(=O)N[C@@H](Cc2ccc3ccccc3c2)C(=O)N[C@@](C)(CC(C)C)C(=O)NCC(=O)N2CCC[C@H]2C(=O)NCCC(N)=O)C(C)(C)SSC1(C)C` [compound 219]: the IC50 on IL-23R was 10 to 100 nM. Also, the values for the half-life at 20 μM in the data set “in vitro [1]”, in “in vitro [2]” and in “in vitro [3]” were 16 h, 24 h and 3 h, respectively.
Turning to `CC(=O)N[C@@H]1C(=O)N[C@@H](CC(N)=O)C(=O)N[C@@H]([C@@H](C)O)C(=O)N[C@@H](Cc2c[nH]c3c(C)cccc23)C(=O)N[C@@H](CCC(N)=O)C(=O)N[C@H](C(=O)N[C@@H](Cc2ccc(OCCN)cc2)C(=O)N[C@@H](Cc2ccc3ccccc3c2)C(=O)N[C@@](C)(CC(C)C)C(=O)NCC(=O)N2CCC[C@@H]2C(=O)NCCC(N)=O)C(C)(C)SSC1(C)C` [compound 220], the IC50 on IL-23R was more than 100 nM. The half-life at 20 μM in “in vitro [1]” was more than 24 h; in “in vitro [2]” it was 21 h; in the data set “in vitro [3]”, 1 h.
On to `CC(=O)NCCCC[C@H](NC(=O)[C@](C)(CCCCN)NC(=O)[C@H](Cc1ccc2ccccc2c1)NC(=O)[C@H](Cc1ccc(OCCN)cc1)NC(=O)[C@H]1NC(=O)[C@H](CCC(N)=O)NC(=O)[C@H](Cc2c[nH]c3cc(Cl)ccc23)NC(=O)[C@H]([C@@H](C)O)NC(=O)[C@H](CC(N)=O)NC(=O)[C@@H](NC(C)=O)C(C)(C)SSC1(C)C)C(=O)N[C@@H](CC(N)=O)C(=O)NCCC(N)=O` [compound 228], for which the IC50 at IL-23R fell in the range of 10 to 100 nM. The results for the half-life at 20 μM in the data set “in vitro [1]”, in the data set “in vitro [2]” and in “in vitro [3]” were more than 24 h, 13 h and more than 24 h, respectively.
On to `CC(=O)NCCCC[C@H](NC(=O)[C@](C)(CCCCN)NC(=O)[C@H](Cc1ccc2ccccc2c1)NC(=O)[C@H](Cc1ccc(OCCN)cc1)NC(=O)[C@H]1NC(=O)[C@H](CCC(N)=O)NC(=O)[C@H](Cc2c(C(C)(C)C)[nH]c3c(C(C)(C)C)cc(C(C)(C)C)cc23)NC(=O)[C@H]([C@@H](C)O)NC(=O)[C@H](CC(N)=O)NC(=O)[C@@H](NC(C)=O)C(C)(C)SSC1(C)C)C(=O)N[C@@H](CC(N)=O)C(=O)NCCC(N)=O` [compound 233], for which the IC50 on IL-23R is more than 100 nM. The half-life at 20 μM in “in vitro [1]”, in “in vitro [2]” and in “in vitro [3]” was more than 24 h each time.
Consider `CC(=O)NCCCC[C@H](NC(=O)[C@](C)(CCCCN)NC(=O)[C@H](Cc1ccc2ccccc2c1)NC(=O)[C@H](Cc1ccc(OCCN)cc1)NC(=O)[C@H]1NC(=O)[C@H](CCC(N)=O)NC(=O)[C@H](Cc2c[nH]c3c(C)cccc23)NC(=O)[C@H]([C@@H](C)O)NC(=O)[C@H](CCC(N)=O)NC(=O)[C@@H](NC(C)=O)C(C)(C)SSC1(C)C)C(=O)N[C@@H](CC(N)=O)C(=O)NCCC(N)=O` [compound 237], for which, on IL-23R, the IC50 lay in the range of 1 to 10 nM. The half-life at 20 μM in “in vitro [1]” is more than 24 h; in the data set “in vitro [2]” it was 6 h; in the data set “in vitro [3]”, more than 24 h.
Take `CC(=O)NCCCC[C@H](NC(=O)[C@](C)(CCCCN)NC(=O)[C@H](Cc1ccc2ccccc2c1)NC(=O)[C@H](Cc1ccc(OCCN)cc1)NC(=O)[C@H]1NC(=O)C(C)(C)NC(=O)[C@H](Cc2c[nH]c3c(C)cccc23)NC(=O)[C@H]([C@@H](C)O)NC(=O)[C@H](CC(N)=O)NC(=O)[C@@H](NC(C)=O)C(C)(C)SSC1(C)C)C(=O)N[C@@H](CC(N)=O)C(=O)NCCC(N)=O` [compound 241] (Ac-[Pen]NT[Trp(7-Me)][Aib][Pen][AEF][2Nal][αMeK]K(Ac)N[βAla]-NH2; disulfide 1-6): the IC50 at IL-23R is 10 to 100 nM. The values for the half-life at 20 μM in the data set “in vitro [1]”, in “in vitro [2]” and in the data set “in vitro [3]” were more than 24 h, 15 h and more than 24 h, respectively.
On to `CC(=O)NCCCC[C@@H]1NC(=O)[C@H](Cc2c[nH]c3c(C)cccc23)NC(=O)[C@H]([C@@H](C)O)NC(=O)[C@H](CC(N)=O)NC(=O)[C@@H](NC(C)=O)C(C)(C)SSC(C)(C)[C@@H](C(=O)N[C@@H](Cc2ccc(OCCN)cc2)C(=O)N[C@@H](Cc2ccc3ccccc3c2)C(=O)N[C@@](C)(CCCCN)C(=O)N[C@@H](CCCCNC(C)=O)C(=O)N[C@@H](CC(N)=O)C(=O)N[C@H](CC(C)C)C(N)=O)NC1=O` [compound 245], for which the IC50 on IL-23R was less than 1 nM. For the same molecule, the half-life at 20 μM in “in vitro [1]”, in “in vitro [2]” and in “in vitro [3]” was more than 24 h each time.
As for `CC(=O)NCCCC[C@@H]1NC(=O)[C@H](Cc2c[nH]c3c(C)cccc23)NC(=O)[C@H]([C@@H](C)O)NC(=O)[C@H](CC(N)=O)NC(=O)[C@@H](NC(C)=O)C(C)(C)SSC(C)(C)[C@@H](C(=O)N[C@@H](Cc2ccc(OCCN)cc2)C(=O)N[C@@H](Cc2ccc3ccccc3c2)C(=O)N[C@@](C)(CCCCN)C(=O)N[C@@H](CCCCNC(C)=O)C(=O)N[C@@H](CC(N)=O)C(=O)N(C)[C@@H](CCCNC(=N)N)C(N)=O)NC1=O` [compound 246], the IC50 at IL-23R was in the range of 1 to 10 nM. The half-life at 20 μM in “in vitro [1]”, in “in vitro [2]” and in “in vitro [3]” was more than 24 h throughout.
For `CC(=O)NCCCC[C@H](NC(=O)C1(NC(=O)[C@H](Cc2ccc3ccccc3c2)NC(=O)[C@H](Cc2ccc(OCCN)cc2)NC(=O)[C@H]2NC(=O)[C@H](CCC(N)=O)NC(=O)[C@H](Cc3c[nH]c4c(C)cccc34)NC(=O)[C@H]([C@@H](C)O)NC(=O)[C@H](CC(N)=O)NC(=O)[C@@H](NC(C)=O)C(C)(C)SSC2(C)C)CCC1)C(=O)N[C@@H](CC(N)=O)C(=O)NCCC(N)=O` [compound 277], the IC50 on IL-23R was less than 1 nM. The half-life at 20 μM is 5 h in the data set “in vitro [2]” and 6 h in the data set “in vitro [3]”.
With `CC(=O)NCCCC[C@@H]1NC(=O)[C@H](Cc2c[nH]c3c(C)cccc23)NC(=O)[C@H]([C@@H](C)O)NC(=O)[C@H](CCC(N)=O)NC(=O)[C@@H](NC(=O)[C@@H](CCCNC(=N)N)NC(C)=O)CCSC[C@@H](C(=O)N[C@@H](Cc2ccc(OCCN)cc2)C(=O)N[C@@H](Cc2ccc3ccccc3c2)C(=O)N[C@@](C)(CCCCN)C(=O)N[C@@H](CCCCNC(C)=O)C(=O)N[C@@H](CC(N)=O)C(N)=O)NC1=O` [compound 326] (Ac-[dR][Abu(4-yl)]QT[Trp(7-Me)]K(Ac)C[AEF][2Nal][αMeK]K(Ac)N-NH2; thioether 2-7), the IC50 on IL-23R lay within 10 to 100 nM. Also, the half-life at 20 μM in “in vitro [1]” and in the data set “in vitro [2]” was 11 h each time.
